Data from patent US12145945B2, “Compounds, compositions, and therapeutic uses thereof” (Breakpoint Therapeutics GmbH, priority 2023, dated 2024).
pIC50: −log10 of the molar value.

Molecular target: truncated Polθ protein (Polθ-Hel containing the helicase domain (67-894)) (Homo sapiens (Human), UniProt O75417)
Test: Polθ ATPase assay (Biological Assay 1, ADP-Glo luminescence)
Format: biochemical
Protocol: The Polθ ATPase assay was used to evaluate inhibitors of Polθ ATPase activity, in vitro. Experiments were performed using a truncated Polθ protein (Polθ-Hel containing the helicase domain (67-894), ATP and a DNA single strand Oligo (5′-CTGTCCTGCATGATG-3′) in the Polθ assay buffer (20 mM Tris-HCl (pH 8.8), MgCl2 5 mM, tween20 0.01%, NP40 0.01%, BSA 0.01%, DTT 1 mM). 2 μL of assay buffer containing Polθ-Hel protein (0.5 nM) and DNA substrate (500 nM) was transferred into assay ready plates, containing 0.04 μL of compounds diluted in DMSO. After a 30 minutes incubation at 23° C. in the dark, the reaction was triggered by adding 2 μL of ATP (60 μM), in assay buffer. After 60 minutes at 23° C., 4 μl of ADP-Glo™ Reagent (Glo 1) was added followed by 40 minutes of incubation, then 8 μl of ADP-Glo™ kinase Detection Reagent (Glo 2) followed by 60 minutes of incubation at 23° C. Luminescence was then measured using Tecan F200 infinite plate reader. Raw data were analysed using GeneData to generate IC50 values.
The Polθ ATPase assay described in Biological Assay 1 above was used to evaluate inhibitors of Polθ ATPase activity for the compounds described in the Experimental Part B above, in vitro.

[1] = Table A, Polθ-Hel 0.5 nM, DNA substrate 500 nM, ATP 60 μM

Sequence of truncated Polθ protein (Polθ-Hel containing the helicase domain (67-894)) (O75417 67-894): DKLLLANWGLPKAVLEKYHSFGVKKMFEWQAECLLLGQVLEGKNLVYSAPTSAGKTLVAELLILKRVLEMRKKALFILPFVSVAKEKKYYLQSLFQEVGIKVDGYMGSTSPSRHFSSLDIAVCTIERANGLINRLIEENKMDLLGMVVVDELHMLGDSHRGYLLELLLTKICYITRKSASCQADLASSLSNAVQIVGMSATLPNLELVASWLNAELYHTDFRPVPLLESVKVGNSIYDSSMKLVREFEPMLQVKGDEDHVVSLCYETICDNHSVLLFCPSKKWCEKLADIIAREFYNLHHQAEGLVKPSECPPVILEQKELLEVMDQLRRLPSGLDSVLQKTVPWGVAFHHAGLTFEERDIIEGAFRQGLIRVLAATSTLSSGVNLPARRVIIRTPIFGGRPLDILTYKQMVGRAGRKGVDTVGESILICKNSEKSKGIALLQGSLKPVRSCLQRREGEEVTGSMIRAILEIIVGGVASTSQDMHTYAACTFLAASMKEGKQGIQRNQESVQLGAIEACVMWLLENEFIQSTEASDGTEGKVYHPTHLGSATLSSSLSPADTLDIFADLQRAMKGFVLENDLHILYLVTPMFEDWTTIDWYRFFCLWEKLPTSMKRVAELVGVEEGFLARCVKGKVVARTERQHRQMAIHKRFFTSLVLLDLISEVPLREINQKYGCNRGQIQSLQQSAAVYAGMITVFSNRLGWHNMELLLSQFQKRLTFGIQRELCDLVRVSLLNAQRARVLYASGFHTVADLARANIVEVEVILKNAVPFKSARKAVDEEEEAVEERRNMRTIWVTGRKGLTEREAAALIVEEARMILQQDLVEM

pIC50 [1]	pIC50 (Table B (Part B compounds), same assay as Biological Assay 1)	SMILES
> 7.00		COc1cnc(Cl)cc1-c1cc(C)ncc1C(=O)Nc1nc2ccc(I)cc2s1 [Example 4, 2′-chloro-N-(6-iodo-1,3-benzothiazol-2-yl)-5′-methoxy-6-methyl-[4,4′-bipyridine]-3-carboxamide]
< 6.00		COc1ccccc1-c1cnccc1C(=O)Nc1nc2ccccc2s1 [Example 15, N-(1,3-benzothiazol-2-yl)-3-(2-methoxyphenyl) pyridine-4-carboxamide]
> 7.00		COc1cnc(Cl)cc1-c1cc(C)ncc1C(=O)Nc1nc2cnc(N3CCC(O)CC3)cc2s1 [Example 68, 2′-chloro-N-[6-(4-hydroxypiperidin-1-yl)-[1,3]thiazolo[4,5-c]pyridin-2-yl]-5′-methoxy-6-methyl-[4,4′-bipyridine]-3-carboxamide]
	> 7.00	COc1cnc(Cl)cc1-c1cc(C)ncc1C(=O)Nc1nc2cnc(N3CC(OC)C3)cc2s1 [Example 129, 2′-chloro-5′-methoxy-N-[6-(3-methoxyazetidin-1-yl)-[1,3]thiazolo[4,5-c]pyridin-2-yl]-6-methyl-[4,4′-bipyridine]-3-carboxamide]
